According to US20260001847A1, “HERBICIDAL QUINOLONE DERIVATIVES” (SYNGENTA CROP PROTECTION AG, priority 2022, published 2026):
Marks after values point to notes of the source that are not given here.

How the values were obtained:
Format in all cases: in vivo
[1] = test system: Ipomoea hederacea (IPOHE); experiment: Pre-emergence Test; settings: evaluated after 13 days
Setaria faberi (SETFA) [2] = experiment: Pre-emergence Test; settings: 1000 g/ha, evaluated after 13 days
[3] = test system: Echinochloa crus-galli (ECHCG); experiment: Pre-emergence Test; settings: 1000 g/ha, evaluated after 13 days
Zea mays (ZEAMX) [4] = experiment: Pre-emergence Test; settings: 1000 g/ha, evaluated after 13 days
[5] = test system: Amaranthus retoflexus (AMARE); experiment: Pre-emergence Test; settings: evaluated after 13 days
[6] = test system: Amaranthus palmeri (AMAPA); experiment: Pre-emergence Test; settings: evaluated after 13 days
[7] = test system: Amaranthus palmeri (AMAPA); experiment: Post-emergence Test; settings: evaluated after 13 days
Method: (§1) Seeds of a variety of test species are sown in standard soil in pots (Abutilon theophrasti (ABUTH), Ipomoea hederacea (IPOHE). Setaria faberi (SETFA), Echinochloa crus-galli (ECHCG), Zea mays (ZEAMX), Amaranthus retoflexus (AMARE), Solanum nigrum (SOLNI), Lolium perenne (LOLPE), Amaranthus palmeri (AMAPA)). After 8 days cultivation under controlled conditions in a glasshouse (at 24° C./16° C., day/night-; 14 hours light; 65% humidity), the plants are sprayed with an aqueous spray solution derived from the formulation of the technical active ingredient in acetone/water (50:50) solution containing 0.5% Tween 20 (polyoxyethylene sorbitan monolaurate, CAS RN 9005-64-5). Compounds are applied at 1000 g/ha unless otherwise stated. The test plants are then grown in a glasshouse under controlled conditions in a glasshouse (at 24° C./16° C., day/night; 14 hours light; 65% humidity) and watered twice daily. After 13 days the test is evaluated for the percentage damage caused to the plant. The biological activities are shown in the following table on a five-point scale (5=81-100%; 4=61-80%; 3=41-60%; 2=21-40%; 1=0-20%; -=not tested).

[8] = test system: Amaranthus retoflexus (AMARE); experiment: Post-emergence Test; settings: evaluated after 13 days
Method: as §1

[9] = test system: Echinochloa crus-galli (ECHCG); experiment: Post-emergence Test; settings: evaluated after 13 days
Method: as §1

[10] = test system: Ipomoea hederacea (IPOHE); experiment: Post-emergence Test; settings: evaluated after 13 days
Method: as §1

Setaria faberi (SETFA) [11] = experiment: Post-emergence Test; settings: evaluated after 13 days
Method: as §1

Zea mays (ZEAMX) [12] = experiment: Post-emergence Test; settings: evaluated after 13 days
Method: as §1

Compound | percentage damage caused to the plant, IPOHE ([1]; 1000 g/ha) | percentage damage caused to the plant, SETFA (Setaria faberi (SETFA) [2]) | percentage damage caused to the plant, ECHCG [3] | percentage damage caused to the plant, ZEAMX (Zea mays (ZEAMX) [4]) | percentage damage caused to the plant, AMAPA ([7]; 1000 g/ha) | percentage damage caused to the plant, AMARE ([8]; 1000 g/ha) | percentage damage caused to the plant, ECHCG ([9]; 1000 g/ha) | percentage damage caused to the plant, IPOHE ([10]; 1000 g/ha) | percentage damage caused to the plant, SETFA (Setaria faberi (SETFA) [11]; 1000 g/ha) | percentage damage caused to the plant, ZEAMX (Zea mays (ZEAMX) [12]; 1000 g/ha) | other results
CCn1c(-c2ccc(Cl)c(Cl)c2)c(C(=O)O)c(=O)c2c(Br)cccc21 [Compound 4, 5-bromo-2-(3,4-dichlorophenyl)-1-ethyl-4-oxo-quinoline-3-carboxylic acid] | 1 (1=0-20%) | 5 (5=81-100%) | 5 (5=81-100%) | 3 (3=41-60%) | 0 | 0 | 1 (1=0-20%) | 1 (1=0-20%) | 1 (1=0-20%) | 1 (1=0-20%) | percentage damage caused to the plant, AMARE ([5]; 1000 g/ha): 1 (1=0-20%); percentage damage caused to the plant, AMAPA ([6]; 1000 g/ha): 2 (2=21-40%)
CCn1c(-c2ccc(Cl)c(Cl)c2)c(C(=O)O)c(=O)c2cc(Cl)ccc21 [Compound 5, 6-chloro-2-(3,4-dichlorophenyl)-1-ethyl-4-oxo-quinoline-3-carboxylic acid] | 0 | 2 (2=21-40%) | 0 | 1 (1=0-20%) | 1 (1=0-20%) | 1 (1=0-20%) |  | 1 (1=0-20%) | 4 (4=61-80%) | 2 (2=21-40%) | 
CCn1c(-c2ccc(Cl)c(Cl)c2)c(C(=O)O)c(=O)c2cc(F)ccc21 [Compound 6, 2-(3,4-dichlorophenyl)-1-ethyl-6-fluoro-4-oxo-quinoline-3-carboxylic acid] | 0 | 5 (5=81-100%) | 5 (5=81-100%) | 0 | 3 (3=41-60%) | 1 (1=0-20%) | 4 (4=61-80%) | 3 (3=41-60%) | 4 (4=61-80%) | 4 (4=61-80%) | 
CCn1c(-c2ccc(Cl)c(Cl)c2)c(C(=O)O)c(=O)c2cc(C#N)ccc21 [Compound 7, 6-cyano-2-(3,4-dichlorophenyl)-1-ethyl-4-oxo-quinoline-3-carboxylic acid] | 1 (1=0-20%) | 5 (5=81-100%) | 5 (5=81-100%) | 3 (3=41-60%) | 4 (4=61-80%) | 3 (3=41-60%) |  | 2 (2=21-40%) | 4 (4=61-80%) | 3 (3=41-60%) | 
CCn1c(-c2ccc(Cl)c(Cl)c2)c(C(=O)O)c(=O)c2cc(-c3ccc(F)cc3)ccc21 [Compound 9, 2-(3,4-dichlorophenyl)-1-ethyl-6-(4-fluorophenyl)-4-oxo-quinoline-3-carboxylic acid] | 1 (1=0-20%) | 4 (4=61-80%) | 3 (3=41-60%) | 1 (1=0-20%) | 2 (2=21-40%) | 2 (2=21-40%) | 0 | 2 (2=21-40%) | 0 | 0 | 
CCn1c(-c2ccc(Cl)c(Cl)c2)c(C(=O)O)c(=O)c2cc(C(N)=O)ccc21 [Compound 10, 6-carbamoyl-2-(3,4-dichlorophenyl)-1-ethyl-4-oxo-quinoline-3-carboxylic acid] | 0 | 0 | 0 | 2 (2=21-40%) | 4 (4=61-80%) | 2 (2=21-40%) |  | 1 (1=0-20%) | 4 (4=61-80%) | 2 (2=21-40%) | 
CCn1c(-c2ccc(Cl)c(Cl)c2)c(C(=O)O)c(=O)c2ccc(C(F)(F)F)cc21 [Compound 13, 2-(3,4-dichlorophenyl)-1-ethyl-4-oxo-7-(trifluoromethyl)quinoline-3-carboxylic acid] | 0 | 0 | 0 | 0 | 1 (1=0-20%) | 2 (2=21-40%) | 2 (2=21-40%) | 0 | 1 (1=0-20%) | 1 (1=0-20%) | 
CCn1c(-c2ccc(Cl)c(Cl)c2)c(C(=O)O)c(=O)c2cc(C(F)(F)F)ccc21 [Compound 16, 2-(3,4-dichlorophenyl)-1-ethyl-4-oxo-6-(trifluoromethyl)quinoline-3-carboxylic acid] | 1 (1=0-20%) | 5 (5=81-100%) | 5 (5=81-100%) | 1 (1=0-20%) | 0 | 0 | 4 (4=61-80%) | 2 (2=21-40%) | 4 (4=61-80%) | 3 (3=41-60%) | percentage damage caused to the plant, AMARE ([5]; 1000 g/ha): 1 (1=0-20%)
CCn1c(-c2ccc(Cl)c(Cl)c2)c(C(=O)O)c(=O)c2c(C#N)cccc21 [Compound 17, 5-cyano-2-(3,4-dichlorophenyl)-1-ethyl-4-oxo-quinoline-3-carboxylic acid] |  |  |  |  |  |  |  |  |  |  | percentage damage caused to the plant, IPOHE ([1]; 250 g/ha): 1* (1=0-20%); percentage damage caused to the plant, AMARE ([5]; 250 g/ha): 1* (1=0-20%); percentage damage caused to the plant, AMAPA ([6]; 250 g/ha): 1* (1=0-20%); percentage damage caused to the plant, AMAPA ([7]; 250 g/ha): 2* (2=21-40%); percentage damage caused to the plant, AMARE ([8]; 250 g/ha): 2* (2=21-40%); percentage damage caused to the plant, ECHCG ([9]; 250 g/ha): 1* (1=0-20%); percentage damage caused to the plant, IPOHE ([10]; 250 g/ha): 2* (2=21-40%); percentage damage caused to the plant, SETFA (Setaria faberi (SETFA) [11]; 250 g/ha): 1* (1=0-20%); percentage damage caused to the plant, ZEAMX (Zea mays (ZEAMX) [12]; 250 g/ha): 0*
CC(=O)c1cccc2c1c(=O)c(C(=O)O)cn2-c1ccc(OC(F)(F)F)cc1 [Compound 19, 5-acetyl-4-oxo-1-[4-(trifluoromethoxy)phenyl]quinoline-3-carboxylic acid] | 0 | 3 (3=41-60%) | 3 (3=41-60%) | 0 | 2 (2=21-40%) | 0 | 4 (4=61-80%) | 1 (1=0-20%) | 3 (3=41-60%) | 3 (3=41-60%) | 
